From paper PMC5540273, “Progress towards a public chemogenomic set for protein kinases and a call for contributions” (PLoS ONE, 2017)

Each compound was assayed against CAMK1D (Homo sapiens, UniProt Q8IU85) (assay: KINOMEscan competition binding). Settings: read-out: %Inh CAMK1D.
Chain of CAMK1D (Q8IU85 whole entry): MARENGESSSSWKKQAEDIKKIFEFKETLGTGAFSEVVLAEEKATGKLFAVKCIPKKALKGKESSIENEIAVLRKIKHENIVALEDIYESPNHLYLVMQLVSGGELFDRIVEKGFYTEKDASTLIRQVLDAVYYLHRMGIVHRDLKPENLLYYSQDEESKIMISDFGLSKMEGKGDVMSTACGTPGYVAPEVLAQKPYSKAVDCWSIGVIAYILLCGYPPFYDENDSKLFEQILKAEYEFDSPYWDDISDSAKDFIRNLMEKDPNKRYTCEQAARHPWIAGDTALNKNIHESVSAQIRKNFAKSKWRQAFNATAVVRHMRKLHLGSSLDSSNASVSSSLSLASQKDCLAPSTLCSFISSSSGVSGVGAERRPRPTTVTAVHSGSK
O=c1cc(N2CCOCC2)nc2n(Cc3cccc(Cl)c3Cl)c(C3CC3)nn12 [UNC10225469A] showed an inhibition at 1 µM of 0%. In the case of Cn1cc(-c2cnc(N)c3c(-c4ccc5c(c4)CCN5C(=O)Cc4ccccc4)csc23)cn1 [UNC10225012A], the inhibition at 1 µM is reported as 11%. CS(=O)(=O)Cc1ccc(Nc2nccc(-c3c(-c4cccc(NC(=O)C5CCCCC5)c4)nn4ncccc34)n2)cc1 [UNC10225159A] was tested, and the inhibition at 1 µM was 0%. In the case of COc1cccc(OC)c1C(=O)Nc1cccc(-c2nn3ccccc3c2-c2ccnc(Nc3cccc(F)c3)n2)c1 [UNC10225310A], the inhibition at 1 µM is reported as 13%. Work on Cc1ccc(NC(=O)Nc2cccc(C(F)(F)F)c2)cc1 [UNC10225187A] yielded an inhibition at 1 µM of 25%.

These compounds were tested against CDK3 (Homo sapiens, UniProt Q00526) (assay: KINOMEscan competition binding). Settings: read-out: %Inh CDK3.
Chain of CDK3 (Q00526 whole entry): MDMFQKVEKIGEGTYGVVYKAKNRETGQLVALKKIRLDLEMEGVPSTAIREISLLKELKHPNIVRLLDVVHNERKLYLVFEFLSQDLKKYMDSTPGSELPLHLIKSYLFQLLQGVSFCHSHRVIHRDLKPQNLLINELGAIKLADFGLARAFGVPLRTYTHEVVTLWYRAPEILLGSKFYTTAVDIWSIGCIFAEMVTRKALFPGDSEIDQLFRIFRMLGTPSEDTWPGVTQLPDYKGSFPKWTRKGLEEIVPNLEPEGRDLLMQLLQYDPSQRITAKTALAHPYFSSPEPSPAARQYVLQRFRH
O=c1cc(N2CCOCC2)nc2n(Cc3cccc(Cl)c3Cl)c(C3CC3)nn12 [UNC10225469A] was tested, and the inhibition at 1 µM was 5%. In the case of Cn1cc(-c2cnc(N)c3c(-c4ccc5c(c4)CCN5C(=O)Cc4ccccc4)csc23)cn1 [UNC10225012A], the inhibition at 1 µM is reported as 1%. Compound CS(=O)(=O)Cc1ccc(Nc2nccc(-c3c(-c4cccc(NC(=O)C5CCCCC5)c4)nn4ncccc34)n2)cc1 [UNC10225159A] has an inhibition at 1 µM of 0%. With COc1cccc(OC)c1C(=O)Nc1cccc(-c2nn3ccccc3c2-c2ccnc(Nc3cccc(F)c3)n2)c1 [UNC10225310A] the inhibition at 1 µM was 0%. Cc1ccc(NC(=O)Nc2cccc(C(F)(F)F)c2)cc1 [UNC10225187A] showed an inhibition at 1 µM of 0%.

Each compound was assayed against T1, CSNK1A1L (Homo sapiens, UniProt Q8N752) (assay: KINOMEscan competition binding). Settings: read-out: %Inh CSNK1A1L.
T1 sequence (Q8N752 1-337): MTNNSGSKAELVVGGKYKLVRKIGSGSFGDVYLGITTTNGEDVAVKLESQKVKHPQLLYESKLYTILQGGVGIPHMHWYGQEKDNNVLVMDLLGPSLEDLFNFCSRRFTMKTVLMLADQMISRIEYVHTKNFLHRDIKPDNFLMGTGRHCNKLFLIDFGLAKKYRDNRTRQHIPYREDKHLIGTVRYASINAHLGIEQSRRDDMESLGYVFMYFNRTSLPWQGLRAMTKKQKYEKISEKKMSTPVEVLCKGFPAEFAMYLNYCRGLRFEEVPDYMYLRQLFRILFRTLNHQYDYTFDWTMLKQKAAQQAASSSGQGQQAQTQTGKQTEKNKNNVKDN
Compound O=c1cc(N2CCOCC2)nc2n(Cc3cccc(Cl)c3Cl)c(C3CC3)nn12 [UNC10225469A] has an inhibition at 1 µM of 0%. Cn1cc(-c2cnc(N)c3c(-c4ccc5c(c4)CCN5C(=O)Cc4ccccc4)csc23)cn1 [UNC10225012A] gave an inhibition at 1 µM of 0%. CS(=O)(=O)Cc1ccc(Nc2nccc(-c3c(-c4cccc(NC(=O)C5CCCCC5)c4)nn4ncccc34)n2)cc1 [UNC10225159A] was tested, and the inhibition at 1 µM was 0%. With COc1cccc(OC)c1C(=O)Nc1cccc(-c2nn3ccccc3c2-c2ccnc(Nc3cccc(F)c3)n2)c1 [UNC10225310A] the inhibition at 1 µM was 0%. With Cc1ccc(NC(=O)Nc2cccc(C(F)(F)F)c2)cc1 [UNC10225187A] the inhibition at 1 µM was 0%.

Each compound was assayed against T2, EPHB4 (Homo sapiens, UniProt P54760) (assay: KINOMEscan competition binding). Settings: read-out: %Inh EPHB4.
T2 sequence (P54760 16-987): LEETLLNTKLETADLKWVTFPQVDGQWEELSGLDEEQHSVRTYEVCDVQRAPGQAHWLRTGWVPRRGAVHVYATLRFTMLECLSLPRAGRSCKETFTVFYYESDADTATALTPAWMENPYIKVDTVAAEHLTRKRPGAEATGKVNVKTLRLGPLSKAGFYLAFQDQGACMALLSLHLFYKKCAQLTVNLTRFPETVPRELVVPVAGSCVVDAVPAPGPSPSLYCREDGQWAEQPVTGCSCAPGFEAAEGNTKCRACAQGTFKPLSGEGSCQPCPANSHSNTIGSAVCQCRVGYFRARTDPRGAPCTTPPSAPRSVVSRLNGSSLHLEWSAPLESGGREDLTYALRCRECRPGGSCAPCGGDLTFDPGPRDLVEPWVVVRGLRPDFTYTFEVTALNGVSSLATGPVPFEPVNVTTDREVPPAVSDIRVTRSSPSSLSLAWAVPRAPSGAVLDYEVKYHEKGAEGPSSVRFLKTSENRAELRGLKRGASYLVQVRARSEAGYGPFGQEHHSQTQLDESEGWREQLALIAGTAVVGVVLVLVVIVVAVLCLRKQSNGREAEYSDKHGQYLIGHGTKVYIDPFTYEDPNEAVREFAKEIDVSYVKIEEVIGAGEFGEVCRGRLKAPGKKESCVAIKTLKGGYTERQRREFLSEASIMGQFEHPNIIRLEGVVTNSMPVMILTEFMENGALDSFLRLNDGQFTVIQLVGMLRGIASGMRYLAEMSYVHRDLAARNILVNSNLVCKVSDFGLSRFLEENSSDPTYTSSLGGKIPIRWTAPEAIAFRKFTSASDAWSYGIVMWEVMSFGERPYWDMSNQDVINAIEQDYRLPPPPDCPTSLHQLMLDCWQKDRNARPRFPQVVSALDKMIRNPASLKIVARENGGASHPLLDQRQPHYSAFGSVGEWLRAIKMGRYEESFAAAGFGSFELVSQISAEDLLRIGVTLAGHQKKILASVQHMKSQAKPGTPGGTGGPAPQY
O=c1cc(N2CCOCC2)nc2n(Cc3cccc(Cl)c3Cl)c(C3CC3)nn12 [UNC10225469A] gave an inhibition at 1 µM of 3%. Cn1cc(-c2cnc(N)c3c(-c4ccc5c(c4)CCN5C(=O)Cc4ccccc4)csc23)cn1 [UNC10225012A] was tested, and the inhibition at 1 µM was 9%. Work on CS(=O)(=O)Cc1ccc(Nc2nccc(-c3c(-c4cccc(NC(=O)C5CCCCC5)c4)nn4ncccc34)n2)cc1 [UNC10225159A] yielded an inhibition at 1 µM of 0%. With COc1cccc(OC)c1C(=O)Nc1cccc(-c2nn3ccccc3c2-c2ccnc(Nc3cccc(F)c3)n2)c1 [UNC10225310A] the inhibition at 1 µM was 8%. Compound Cc1ccc(NC(=O)Nc2cccc(C(F)(F)F)c2)cc1 [UNC10225187A] has an inhibition at 1 µM of 0%.

These compounds were tested against T3, GRK1 (Homo sapiens, UniProt Q15835) (assay: KINOMEscan competition binding). Settings: read-out: %Inh GRK1.
T3 sequence (Q15835 1-563): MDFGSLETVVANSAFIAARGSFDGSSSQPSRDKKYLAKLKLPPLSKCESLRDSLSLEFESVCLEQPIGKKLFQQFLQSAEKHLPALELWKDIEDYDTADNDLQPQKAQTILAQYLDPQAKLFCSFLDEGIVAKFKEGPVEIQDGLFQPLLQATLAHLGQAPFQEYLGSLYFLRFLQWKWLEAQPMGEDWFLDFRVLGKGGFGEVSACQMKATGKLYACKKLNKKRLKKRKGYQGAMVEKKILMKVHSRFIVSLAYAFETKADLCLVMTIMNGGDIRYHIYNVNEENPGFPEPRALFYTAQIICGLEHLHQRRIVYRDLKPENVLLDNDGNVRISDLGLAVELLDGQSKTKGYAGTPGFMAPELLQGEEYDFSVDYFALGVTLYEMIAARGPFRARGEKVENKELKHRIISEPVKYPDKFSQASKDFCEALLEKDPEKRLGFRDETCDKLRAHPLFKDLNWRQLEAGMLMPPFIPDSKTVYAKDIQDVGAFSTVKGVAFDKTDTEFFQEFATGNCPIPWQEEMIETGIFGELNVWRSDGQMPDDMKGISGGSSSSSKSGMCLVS
O=c1cc(N2CCOCC2)nc2n(Cc3cccc(Cl)c3Cl)c(C3CC3)nn12 [UNC10225469A] showed an inhibition at 1 µM of 0%. With Cn1cc(-c2cnc(N)c3c(-c4ccc5c(c4)CCN5C(=O)Cc4ccccc4)csc23)cn1 [UNC10225012A] the inhibition at 1 µM was 0%. CS(=O)(=O)Cc1ccc(Nc2nccc(-c3c(-c4cccc(NC(=O)C5CCCCC5)c4)nn4ncccc34)n2)cc1 [UNC10225159A] was tested, and the inhibition at 1 µM was 0%. COc1cccc(OC)c1C(=O)Nc1cccc(-c2nn3ccccc3c2-c2ccnc(Nc3cccc(F)c3)n2)c1 [UNC10225310A] was tested, and the inhibition at 1 µM was 0%. Work on Cc1ccc(NC(=O)Nc2cccc(C(F)(F)F)c2)cc1 [UNC10225187A] yielded an inhibition at 1 µM of 2%.

These compounds were tested against T4, GRK3 (Homo sapiens, UniProt P35626) (assay: KINOMEscan competition binding). Settings: read-out: %Inh GRK3.
T4 sequence (P35626 1-688): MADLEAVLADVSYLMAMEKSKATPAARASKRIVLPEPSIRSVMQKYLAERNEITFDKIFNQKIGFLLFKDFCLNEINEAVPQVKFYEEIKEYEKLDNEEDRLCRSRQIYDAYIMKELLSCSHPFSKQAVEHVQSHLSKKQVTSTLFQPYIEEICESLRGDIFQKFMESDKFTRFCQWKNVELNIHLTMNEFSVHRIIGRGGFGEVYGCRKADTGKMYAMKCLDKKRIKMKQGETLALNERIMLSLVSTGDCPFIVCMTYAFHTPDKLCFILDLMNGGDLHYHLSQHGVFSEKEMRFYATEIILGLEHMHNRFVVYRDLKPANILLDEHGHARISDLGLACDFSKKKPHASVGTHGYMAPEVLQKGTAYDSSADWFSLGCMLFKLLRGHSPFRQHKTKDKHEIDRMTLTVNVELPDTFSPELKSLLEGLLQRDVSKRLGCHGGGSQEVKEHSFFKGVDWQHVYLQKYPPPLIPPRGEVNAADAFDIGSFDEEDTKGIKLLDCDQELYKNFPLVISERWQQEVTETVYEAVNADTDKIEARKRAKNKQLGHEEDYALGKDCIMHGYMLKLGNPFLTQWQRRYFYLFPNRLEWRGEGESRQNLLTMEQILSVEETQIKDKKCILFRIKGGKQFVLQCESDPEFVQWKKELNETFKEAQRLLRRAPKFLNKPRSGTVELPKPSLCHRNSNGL
O=c1cc(N2CCOCC2)nc2n(Cc3cccc(Cl)c3Cl)c(C3CC3)nn12 [UNC10225469A] was tested, and the inhibition at 1 µM was 0%. Work on Cn1cc(-c2cnc(N)c3c(-c4ccc5c(c4)CCN5C(=O)Cc4ccccc4)csc23)cn1 [UNC10225012A] yielded an inhibition at 1 µM of 0%. CS(=O)(=O)Cc1ccc(Nc2nccc(-c3c(-c4cccc(NC(=O)C5CCCCC5)c4)nn4ncccc34)n2)cc1 [UNC10225159A] was tested, and the inhibition at 1 µM was 0%. For COc1cccc(OC)c1C(=O)Nc1cccc(-c2nn3ccccc3c2-c2ccnc(Nc3cccc(F)c3)n2)c1 [UNC10225310A], the inhibition at 1 µM was 0%. For Cc1ccc(NC(=O)Nc2cccc(C(F)(F)F)c2)cc1 [UNC10225187A], the inhibition at 1 µM was 0%.

What follows are compounds tested against INSR (Homo sapiens, UniProt P06213) (assay: KINOMEscan competition binding). Settings: read-out: %Inh INSR.
Chain of INSR (P06213 28-1382): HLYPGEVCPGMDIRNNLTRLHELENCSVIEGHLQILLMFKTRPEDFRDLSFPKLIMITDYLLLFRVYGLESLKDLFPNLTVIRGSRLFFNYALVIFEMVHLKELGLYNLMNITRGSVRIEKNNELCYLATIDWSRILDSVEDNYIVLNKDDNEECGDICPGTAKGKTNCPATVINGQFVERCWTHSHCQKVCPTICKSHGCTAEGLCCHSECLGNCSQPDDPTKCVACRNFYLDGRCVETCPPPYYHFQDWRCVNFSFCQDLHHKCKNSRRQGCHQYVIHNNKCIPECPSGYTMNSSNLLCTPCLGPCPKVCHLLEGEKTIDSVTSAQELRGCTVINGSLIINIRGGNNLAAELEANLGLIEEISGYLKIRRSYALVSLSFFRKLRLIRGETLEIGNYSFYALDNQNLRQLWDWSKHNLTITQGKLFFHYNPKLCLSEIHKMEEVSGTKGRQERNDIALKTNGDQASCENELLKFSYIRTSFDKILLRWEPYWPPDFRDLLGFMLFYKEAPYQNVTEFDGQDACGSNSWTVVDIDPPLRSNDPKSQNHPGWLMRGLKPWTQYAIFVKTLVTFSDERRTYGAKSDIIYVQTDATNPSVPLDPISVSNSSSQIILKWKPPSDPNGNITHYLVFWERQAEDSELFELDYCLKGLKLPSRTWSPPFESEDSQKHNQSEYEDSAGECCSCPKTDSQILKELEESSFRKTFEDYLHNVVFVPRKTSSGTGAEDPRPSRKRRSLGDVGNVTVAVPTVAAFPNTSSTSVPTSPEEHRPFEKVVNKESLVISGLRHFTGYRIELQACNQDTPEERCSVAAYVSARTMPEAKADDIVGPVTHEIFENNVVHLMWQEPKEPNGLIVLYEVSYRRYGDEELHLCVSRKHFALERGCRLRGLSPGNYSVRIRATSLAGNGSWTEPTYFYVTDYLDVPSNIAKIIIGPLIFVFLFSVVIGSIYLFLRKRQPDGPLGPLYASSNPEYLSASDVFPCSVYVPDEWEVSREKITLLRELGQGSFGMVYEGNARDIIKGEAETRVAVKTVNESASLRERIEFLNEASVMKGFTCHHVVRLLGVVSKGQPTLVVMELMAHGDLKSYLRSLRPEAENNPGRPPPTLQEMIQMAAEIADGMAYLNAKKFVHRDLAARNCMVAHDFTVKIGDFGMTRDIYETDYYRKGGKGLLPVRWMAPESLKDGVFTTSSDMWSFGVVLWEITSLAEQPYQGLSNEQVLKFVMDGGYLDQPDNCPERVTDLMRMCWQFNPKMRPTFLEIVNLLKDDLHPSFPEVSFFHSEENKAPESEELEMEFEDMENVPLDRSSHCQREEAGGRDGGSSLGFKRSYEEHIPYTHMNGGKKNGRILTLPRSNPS
Work on O=c1cc(N2CCOCC2)nc2n(Cc3cccc(Cl)c3Cl)c(C3CC3)nn12 [UNC10225469A] yielded an inhibition at 1 µM of 0%. With Cn1cc(-c2cnc(N)c3c(-c4ccc5c(c4)CCN5C(=O)Cc4ccccc4)csc23)cn1 [UNC10225012A] the inhibition at 1 µM was 12%. For CS(=O)(=O)Cc1ccc(Nc2nccc(-c3c(-c4cccc(NC(=O)C5CCCCC5)c4)nn4ncccc34)n2)cc1 [UNC10225159A], the inhibition at 1 µM was 42%. COc1cccc(OC)c1C(=O)Nc1cccc(-c2nn3ccccc3c2-c2ccnc(Nc3cccc(F)c3)n2)c1 [UNC10225310A] showed an inhibition at 1 µM of 0%. Compound Cc1ccc(NC(=O)Nc2cccc(C(F)(F)F)c2)cc1 [UNC10225187A] has an inhibition at 1 µM of 0%.

The compounds below were run against LIMK1 (Homo sapiens, UniProt P53667) (assay: KINOMEscan competition binding). Settings: read-out: %Inh LIMK1.
Chain of LIMK1 (P53667 whole entry): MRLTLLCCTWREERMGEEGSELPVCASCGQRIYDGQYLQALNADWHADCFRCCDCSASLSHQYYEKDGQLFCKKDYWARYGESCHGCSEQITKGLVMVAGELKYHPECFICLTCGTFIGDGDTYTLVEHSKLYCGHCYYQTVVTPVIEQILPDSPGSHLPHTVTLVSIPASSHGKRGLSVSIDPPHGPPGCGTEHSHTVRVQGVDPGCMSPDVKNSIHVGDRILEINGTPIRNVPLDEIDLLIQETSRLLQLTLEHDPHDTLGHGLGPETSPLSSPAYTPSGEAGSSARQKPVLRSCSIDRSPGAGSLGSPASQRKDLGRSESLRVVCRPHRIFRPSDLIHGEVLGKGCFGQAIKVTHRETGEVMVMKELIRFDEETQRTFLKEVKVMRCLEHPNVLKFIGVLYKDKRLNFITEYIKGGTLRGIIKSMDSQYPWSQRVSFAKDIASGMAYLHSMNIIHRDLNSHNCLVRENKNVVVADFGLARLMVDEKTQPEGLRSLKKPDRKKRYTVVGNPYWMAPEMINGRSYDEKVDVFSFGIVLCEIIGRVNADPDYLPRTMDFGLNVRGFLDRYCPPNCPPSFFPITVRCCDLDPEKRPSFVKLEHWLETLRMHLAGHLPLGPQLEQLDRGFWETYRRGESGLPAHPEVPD
For O=c1cc(N2CCOCC2)nc2n(Cc3cccc(Cl)c3Cl)c(C3CC3)nn12 [UNC10225469A], the inhibition at 1 µM was 9%. Compound Cn1cc(-c2cnc(N)c3c(-c4ccc5c(c4)CCN5C(=O)Cc4ccccc4)csc23)cn1 [UNC10225012A] has an inhibition at 1 µM of 49%. With CS(=O)(=O)Cc1ccc(Nc2nccc(-c3c(-c4cccc(NC(=O)C5CCCCC5)c4)nn4ncccc34)n2)cc1 [UNC10225159A] the inhibition at 1 µM was 22%. Work on COc1cccc(OC)c1C(=O)Nc1cccc(-c2nn3ccccc3c2-c2ccnc(Nc3cccc(F)c3)n2)c1 [UNC10225310A] yielded an inhibition at 1 µM of 31%. For Cc1ccc(NC(=O)Nc2cccc(C(F)(F)F)c2)cc1 [UNC10225187A], the inhibition at 1 µM was 0%.
